From article PMC11674187, “Inhibitory Effects of Cenobamate on Multiple Human Cardiac Ion Channels and Possible Arrhythmogenic Consequences” (Biomolecules, 2024)
Like-named read-outs stand apart in the source and are kept apart here.

What was measured:
neuronal Na+ channels = tested on: neuronal Na+ channels; parameters: method as in PMID 33993416; settings: ref [6]; read-out: IC50 on late (persistent) neuronal Na+ current; cited from earlier work
hKv7.1 + minK = target: T1, hKv7.1 + minK (Homo sapiens, UniProt P51787); test: Whole-cell patch-clamp on HEK293T cells, IKs; assay type: cell-based; settings: for inhibition at 200 µM: HEK-293T
T1 construct: host or cells: HEK293T
T1 sequence (P51787 whole entry): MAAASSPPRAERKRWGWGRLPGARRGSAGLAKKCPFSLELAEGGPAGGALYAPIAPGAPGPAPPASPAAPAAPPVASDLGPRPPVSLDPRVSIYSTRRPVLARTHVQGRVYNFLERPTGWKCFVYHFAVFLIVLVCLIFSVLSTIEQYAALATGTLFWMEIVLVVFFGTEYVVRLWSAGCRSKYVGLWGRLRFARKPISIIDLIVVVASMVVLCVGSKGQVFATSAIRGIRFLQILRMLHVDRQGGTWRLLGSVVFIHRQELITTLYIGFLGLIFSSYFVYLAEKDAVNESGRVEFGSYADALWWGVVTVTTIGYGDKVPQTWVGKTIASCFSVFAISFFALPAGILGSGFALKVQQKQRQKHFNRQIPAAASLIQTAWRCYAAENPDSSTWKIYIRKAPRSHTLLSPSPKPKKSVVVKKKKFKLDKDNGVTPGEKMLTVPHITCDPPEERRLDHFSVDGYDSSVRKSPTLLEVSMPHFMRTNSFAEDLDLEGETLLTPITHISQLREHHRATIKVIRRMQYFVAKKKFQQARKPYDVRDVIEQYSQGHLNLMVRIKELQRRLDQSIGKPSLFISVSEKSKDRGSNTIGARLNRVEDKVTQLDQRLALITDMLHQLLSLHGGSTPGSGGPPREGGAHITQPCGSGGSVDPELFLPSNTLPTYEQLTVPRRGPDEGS
Description: Experiments were performed on HEK293T cell lines with persistent/inducible expression of different human cardiac ion channel isoforms: hNav1.5 and hKv7.1 + minK (Anaxon AG, Bern, Switzerland), hCav1.2 (α1c + β2 + α2δ1) (B’SYS GmbH, Witterswil, Switzerland), and hKv11.1 (hERG) (Cytocentrics Bioscience GmbH, Rostock, Germany). The cell lines were grown in standard conditions (37 °C, 5% CO2, 90% humidity) in DMEM:F12 medium (D8900, Sigma-Aldrich, Burlington, MA, USA) buffered with 15 mM HEPES, containing 3.15 g/L D-glucose and 0.055 g/L sodium pyruvate, supplemented with 1.2 g/L sodium bicarbonate, 10% fetal bovine serum (F2442, Sigma-Aldrich, Burlington, MA, USA), 2 mM L-glutamine (G7513, Sigma-Aldrich, Burlington, MA, USA), 1% penicillin–streptomycin (P4333, Sigma-Aldrich, Burlington, MA, USA), and with specific antibiotics for selection of transfected cells or induction of gene expression according to manufacturers’ instructions. The medium was changed every 2–3 days and the cells were passed weekly upon detachment with trypsin–EDTA solution. All cell culture media and solutions were sterile filtered with 0.22 μm polyvinylidene fluoride filters. Ncyte® vCardiomyocytes (Ncardia, Leiden, The Netherlands) were cultured in 24-well plates precoated with bovine fibronectin, following manufacturer’s instructions. For the experiments, cardiomyocytes were detached as described previously and plated on ϕ 10 mm glass coverslips, like the other cell lines.
Manual whole-cell patch-clamp experiments were performed at room temperature, with equipment as described in previous studies. Pipettes were pulled from Clark borosilicate glass capillaries with inner filament (GC150F-10, Harvard Apparatus, Holliston, MA, USA) and had typical resistances of 2–3 MΩ. Recordings were performed with a WPC-100 resistive feedback amplifier (ESF electronic, Göttingen, Germany) or an Axopatch 200B amplifier (Axon Instruments—Molecular Devices, San Jose, CA, USA) connected to a Digidata 1322A interface driven by the pClamp 8.2 Clampex module (Axon Instruments, part of Molecular Devices, San Jose, CA, USA). […]

[1] = tested on: voltage-gated sodium channels in rat hippocampal CA3 neurons; settings: cited from earlier work; for IC50: newborn rat CA3 hippocampal neurons, ref [22]

NC(=O)O[C@@H](Cn1ncnn1)c1ccccc1Cl [cenobamate]
IC50 (neuronal Na+ channels): 59 µM | IC50 (hKv7.1 + minK): > 200 µM | inhibition at 200 µM (hKv7.1 + minK; cenobamate 200 µM, mean (SD), n = 8, not corrected for control rundown 23.66%, read-out: average inhibition of IKs plateau current at +60 mV): 36.7 ± 13% | inhibition at 200 µM (hKv7.1 + minK; cenobamate 200 µM, read-out: estimated net average IKs inhibition (cenobamate 200 µM − control)): 13% | average inhibition of IKs plateau current at +60 mV (hKv7.1 + minK; cenobamate 200 µM, mean (SD), n = 8, not corrected for control rundown 23.66%): 36.68 ± 13.02% | change in half-inactivation potential ([1]; 100 µM cenobamate, ref [22] Nakamura et al., 2019): −6 mV | IC50 ([1]; read-out: IC50 on late (persistent) INa): 53.1 µM | IC50 ([1]; read-out: estimated IC50 on peak (transient) Na+ current): > 500 µM | Kd ([1]; ref [22] Nakamura et al., 2019, read-out: KR (affinity for resting (closed) conformation)): 798 µM
